# Data as given in patent US5667764A, “Compounds, compositions and methods for binding bio-affecting substances to surface membranes of bio-particles” (Zynaxis, Inc., priority 1992, dated 1997).
# Read-outs that look alike come from different tables or passages of the source.
# What was measured:
# restenosis = settings: patients; limiting toxicity; cited from earlier work
# [1] = Colchicine plasma concentration in rabbits (estimated); type: in vivo; settings: rabbit 0.2 mg/kg/day vs human 1 mg/day
# Experimental: (§1) Bochner et al., Handbook of Clinical Pharmacology, Little, Brown and Co., Boston (1983), pp. 151-152. […] Thus, the concentration of colchicine in rabbits shown to prevent restenosis was 14 times the concentration achieved in the clinical trial. The compounds of invention can be prepared in the above-described compatible binding media up to 100 μM, i.e., 1400 times the concentration shown to be effective in the animal study, and delivered directly to the arterial wall by catheter during an angioplasty procedure.
# [2] = 1 mg/day human; cited from earlier work
# A10 cells = assay: Antiproliferative activity on A10 cells after one 10 minute application; type: cell-based, rat; settings: for Cell count: 10 minute application; for activity at 10 µM: Rattus norvegicus, read-out: % of Vehicle Maximum
# Experimental: To determine the antiproliferative action of the compounds of invention, in vitro studies were performed using A10 cells, a clonal cell line originally derived from the thoracic aorta of embryonic rats, that proliferate as myoblasts and develop into cells which phenotypically resemble smooth muscle cells (B. Kimes and B. Brandt, Exptl. Cell Res. 98:349 (1976). Typically, twelve-well plates were seeded with 2500-10,000 A10 cells/cm^2 in Dulbecco's Modified Eagles Medium (DMEM) with 10% fetal calf serum (FCS) and allowed to adhere and stabilize for 24 hours at 37° C. Test substances were then prepared in the required concentrations in appropriate cell binding media and, after aspirating the plating medium, applied to the individual wells at 37° C. for a period of only 10 minutes. The treatments were then aspirated, the wells washed 4 times with non-treatment containing medium and then placed in non-treatment containing DMEM with 10% FCS for the duration of the study. At various times after treatment application, triplicate wells were aspirated, the aspirate saved, and the wells treated with 0.25 ml of 0.25% trypsin to release the adherent cells. The enzymatic action of trypsin on the cells was stopped by addition of excess protein (1.75 ml DMEM+10% FCS), the aspirate returned to the wells, and an aliquot of the resultant cell suspension counted in a Coulter Counter (Model ZM with Sampling Stand II). Cell count was normalized to cells per square centimeter of growing area (surface area of well bottom).
# [3] = Colchicine blood/plasma level in humans; type: in vivo; settings: 1 mg/day human; read-out: Peak plasma concentration
# Experimental: as §1
# rabbit red blood cells [4] = assay: In vivo stability of conjugate on red blood cells
# Experimental: To study the in vivo characteristics of red blood cells labeled with the conjugate of Example 3d., above, 0.5 ml of fresh anticoagulated blood from each of 2 rabbits was labeled with the conjugate (final concentration, 10 μM) and injected back in the same rabbit from which the blood was taken. After the conjugate labeling but prior to injection, an aliquot of labeled cells was examined by flow cytometry to insure adequate labeling. Following in vivo administration of the labeled cells, blood samples were removed at 30 minutes, and then 1, 2, 3, 4, and 7 days and examined by flow cytometry for fluorescent cells.
# human RBCs = assay: Flow cytometry of conjugate-labeled human RBCs with anti-substance P antibody; type: cell-based
# Experimental: Specifically, untreated RBCs and conjugate-labeled RBCs were analyzed to determine if:
# 1. The conjugate was incorporated on the surface of cells (FIG. 3A comparison).
# 2. Fluorescein isothiocyanate (FITC) conjugated goat anti-rabbit antibodies nonspecifically bound to the conjugate-labeled or non-labeled cells (FIG. 3B comparison), or
# 3. rabbit anti-substance P antibodies+FITC anti-rabbit antibodies specifically bound to the conjugate-labeled RBCs (FIG. 3C comparison).
# rabbit red blood cells [5] = assay: Binding of conjugate to washed rabbit red blood cells, flow cytometry; type: cell-based; settings: ex vivo, 100 uM
# Experimental: The conjugate of Example 3d. […] The fluorescent moiety of the conjugate allows its ready detection on RBCs by flow cytometry. When conjugate labeled rabbit RBCs are injected in the rabbit hind-limb, a reduction in perfusion pressure occurs, the magnitude of which is related to the number of injected cells.
# [6] = system: rabbit hind limb (femoral arterial bed), substance P receptors; assay: Vascular response in rabbit blood perfused hind limb preparation; type: in vivo; settings: for ED50: calculated by logistic function, three rabbits; for Effect of antagonist [D-Pro^2,D-Trp^7.9]-substance P on the response: during infusion of antagonist; for Dose at which maximum fall in pressure is achieved / Threshold (minimum) dose required to produce a fall in perfusion pressure / Hind-limb perfusion pressure response: local injection; for Hind-limb perfusion pressure response: no antagonist
# Source text: The in vivo receptor pharmacology of the compound produced in Example 3d., above, was studied in a rabbit blood perfused hind limb preparation similar to that described by U. Forstermann et al., J. Pharmacol. Exp. Ther., 234: 1055-61 (1987). Blood from a pentobarbital anesthetized, artificially ventilated rabbit was withdrawn from a cannulated carotid artery, passed within medical grade silastic tubing through a constant speed roller pump, and directed to a cannulated femoral artery. Distal perfusion pressure in the femoral arterial bed was measured (in mm Hg) by means of a micropressure transducer (Millar) passed down the perfusion tubing so as to lie just beyond the tip of the femoral catheter. Initially, pump speed was adjusted so that distal perfusion pressure approximated systemic mean arterial blood pressure after which blood flow was kept constant for the remainder of each experiment. Changes in resistance then varied directly as distal perfusion pressure in a manner similar to that described by Ohm's law, such that:
# Vascular Resistance=Perfusion Pressure Blood Flow
# Thus, by maintaining blood flow constant for the duration of each experiment, changes in distal perfusion pressure directly reflected vascular resistance such that a decrease in pressure signifies vasodilation and an increase in pressure signifies vasoconstriction. Direct injection into the perfusion circuit could thus be used to assess the vascular biology and pharmacology of substances believed to exert actions on in vivo vascular smooth muscle tone.
# [7] = system: red blood cell ghosts (plasma membrane); assay: Membrane retention coefficient (MRC) in red blood cell ghosts; type: binding; settings: 24 hr; Table II
# Summary of the method: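 Red blood cell ghosts (~1×10^9/ml) were labelled 10 min with compound diluted in iso-osmotic sucrose from ethanol stocks, then washed repeatedly in PBS with 10% FBS over ≥24 h. Total and supernatant compound were measured after n-butanol extraction (fluorescence for fluorescent compounds), and MRC was calculated from these at each wash or time point.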
# membrane ghosts = assay: Membrane binding stability (MBS) assay in membrane ghosts with 5% albumin; settings: 24 hours; for MBS (% of max.): Table II; for MBS: Table III
# Source text: Determination of Membrane Binding Stability
# For example, very stable binding to membranes might be required for applications such as delivery of therapeutic radionuclides to tumor sites, as loss of compound could lead to the radionuclide producing its toxic effect at non-tumor sites. On the other hand, more rapid loss of compound from biomembranes may be desirable for application involving controlled delivery rates of therapeutic agents. Accordingly, there is described hereinbelow an assay for determining MBS under conditions approximating those found in vivo.
# In carrying out this assay, approximately physiological concentrations of serum albumin (5%) are used. […] To better approximate the effects of large fluid volumes to which labelled cells are exposed in vivo, the assay for MBS is carried out by suspending a decreasing number of labeled membrane ghosts in a fixed volume of albumin-containing saline. At 24 hours, the total amount of label present is determined by sampling the well mixed suspension; subsequently, the membrane ghosts are pelleted by centrifugation and the amount of label released into the supernatant is determined and expressed as a percent of total label. Percent retention is plotted against number of ghosts per ml. of suspension, and MBS is determined as the area under the curve between 5×10^7 ghosts/ml. and 4×10^8 ghosts/ml.
# rabbit erythrocytes = settings: iv
# Source text: (§2) *Half life for loss of dye from rabbit erythrocytes after labeling and
# rabbit red blood cells [8] = settings: native Substance P; cited from earlier work
# [9] = In vivo loss of dye from labeled, reinjected erythrocytes; settings: rabbit, iv
# Source text: as §2
compound,measurement,setting,value
"COc1cc2c(c(OC)c1OC)-c1ccc(OC)c(=O)cc1[C@@H](NC(C)=O)CC2 [Colchicine, colchicine]",Maximum tolerated dose,restenosis,≤ 1 mg/day
same,Colchicine concentration in rabbits vs clinical trial,[1],14 times
same,Peak plasma concentration,[2],2 ng/mL
same,Cell count,"A10 cells; 10 μM, day 0",3006.53 cells per square centimeter
same,Cell count,"A10 cells; 10 μM, day 1",3778.07 cells per square centimeter
same,Cell count,"A10 cells; 10 μM, day 2",4249.35 cells per square centimeter
same,Cell count,"A10 cells; 10 μM, day 3",7785.90 cells per square centimeter
same,Cell count,"A10 cells; 10 μM, day 6",57626.63 cells per square centimeter
same,Cell count,"A10 cells; 10 μM, day 7",118127.94 cells per square centimeter
same,% of Vehicle Maximum,"A10 cells; 10 μM, day 0, 0 min",1.44%
same,activity at 10 µM,"A10 cells; A10, 24 h, 10 μM, day 1",1.81%
same,activity at 10 µM,"A10 cells; A10, 48 h, 10 μM, day 2",2.04%
same,activity at 10 µM,"A10 cells; A10, 72 h, 10 μM, day 3",3.73%
same,activity at 10 µM,"A10 cells; A10, 144 h, 10 μM, day 6",27.6%
same,activity at 10 µM,"A10 cells; A10, 168 h, 10 μM, day 7",56.6%
same,Cell density relative to vehicle-treated cells,A10 cells; day 7,only one-half the cell density of vehicle-treated cells
same,Increase in cell number over that with the colchicine conjugate,A10 cells; day 7,approximately 10 fold
same,Cmax,[3],5 nM
CCCCCCCCCCCCCCCCCCCCCC[N+]1=C(C=CC=C2N(CCCCCCCCCCCCCC)c3ccc(CNC(=O)c4ccc(C(=O)NCCCC[C@H](NC(=O)[C@@H]5CCCN5C(=O)[C@@H](N)CCCNC(=N)N)C(=O)N5CCC[C@H]5C(=O)N[C@@H](CCC(N)=O)C(=O)N[C@@H](CCC(N)=O)C(=O)N[C@@H](Cc5ccccc5)C(=O)N[C@@H](Cc5ccccc5)C(=O)NCC(=O)N[C@@H](CC(C)C)C(=O)N[C@@H](CCSC)C(N)=O)cc4)cc3C2(C)C)C(C)(C)c2ccccc21 [conjugate of Example 3d],In vivo dissociation from labeled cells,rabbit red blood cells [4]; up to 7 days,relatively slowly
same,Binding to red cells and effect in circulation,rabbit red blood cells [4]; vs free peptide,bind stably to red cells and to provide a protracted therapeutic effect in circulation
same,Red fluorescent signal of labeled cells,"human RBCs; 10 μM, FIG. 3A",increased red fluorescent signal when compared with the unlabeled cells
same,Recognition of cell-bound Substance P by anti-substance P antibody,human RBCs; FIG. 3C,significant amount of both green and red fluorescence detectable on the cells
same,Binding to red blood cells,rabbit red blood cells [5],readily binds to washed rabbit red blood cells
same,Perfusion pressure response to conjugate labeled RBCs,[6]; 10^6 -10^9 labeled RBCs injected,graded decreases in perfusion pressure in the rabbit hind limb preparation
same,ED50,[6],34 pmol
same,"Effect of antagonist [D-Pro^2,D-Trp^7.9]-substance P on the response",[6],"inhibited by [D-Pro^2,D-Trp^7.9 ]-substance P"
same,Dose at which maximum fall in pressure is achieved,[6],1000 pmol
same,Threshold (minimum) dose required to produce a fall in perfusion pressure,[6],1 to 10 pmol
same,Hind-limb perfusion pressure response,[6],"brief, dose-related decreases in hind-limb perfusion pressure"
same,Hind-limb perfusion pressure response,[6]; listed as Substance P-lipophilic cyanine conjugate of Example 3.d.,capable of vasodilative activity which is qualitatively similar to that of native Substance P
same,Vasodilator activity of supernatant fraction of labeled RBCs,[6]; supernatant fractions of labeled RBCs,contained a significant portion of the biological activity of the original cell suspension
CCCCCCCCCCCCCC[N+]1=C(C=CC=C2N(CCC)c3ccccc3C2(C)C)C(C)(C)c2ccccc21 [Q],MRC# (at 24 hr.),[7],85 ± 0.6
same,MBS (% of max.),membrane ghosts,41 ± 5.0 % of max.
same,MBS,membrane ghosts,42 ± 5.7%
same,In vivo membrane half-life,rabbit erythrocytes,10 ± 0.7 days
"CSCC[C@H](NC(=O)[C@H](CC(C)C)NC(=O)CNC(=O)[C@H](Cc1ccccc1)NC(=O)[C@H](Cc1ccccc1)NC(=O)[C@H](CCC(N)=O)NC(=O)[C@H](CCC(N)=O)NC(=O)[C@@H]1CCCN1C(=O)[C@H](CCCCN)NC(=O)[C@@H]1CCCN1C(=O)[C@@H](N)CCCNC(=N)N)C(N)=O [Substance P, reference compound]",Lifetime in circulation,rabbit red blood cells [8],minutes
same,ED50,[6],0.13 pmol
same,"Effect of antagonist [D-Pro^2,D-Trp^7.9]-substance P on the response",[6],"inhibited by [D-Pro^2,D-Trp^7.9 ]-substance P"
same,Dose at which maximum fall in pressure is achieved,[6],3 to 10 pmol
same,Threshold (minimum) dose required to produce a fall in perfusion pressure,[6],approximately 0.003 pmoles
same,Hind-limb perfusion pressure response,[6],"brief, dose-related decreases in hind-limb perfusion pressure"
same,Relative potency of substance P vs conjugate,[6]; ratio of ED50,250 fold
CCCCCCCCCCCCCCN1C(=CC=CC2=[N+](CCCCCCCCCCCCCC)c3ccccc3C2(C)C)C(C)(C)c2ccccc21 [R],MRC# (at 24 hr.),[7],87 ± 0.6
same,MBS (% of max.),membrane ghosts,55 ± 1.7 % of max.
same,MBS,membrane ghosts,55 ± 1.6%
same,half-life,[9],36 days
CCCCCCCCCCCCCCCCN1C(=CC=CC2=[N+](CCCCCCCCCCCCCCCC)c3ccccc3C2(C)C)C(C)(C)c2ccccc21 [S],MRC# (at 24 hr.),[7],87 ± 1.2
same,MBS (% of max.),membrane ghosts,79 ± 3.7 % of max.
same,half-life,[9],58 days
